Reference: ChEMBL document CHEMBL1137710, “Synthesis and in vitro antitumor activity of new quinoxaline derivatives” (2009)

Columns and labels:
Type in all cases: functional
NCI-H460 = assay: Anticancer activity against human NCI-H460 cells assessed as cell growth at 100 uM after 48 hrs by sulforhodamine B assay; conditions: NCI-H460, 48 h, read-out: Activity
SF-268 = assay: Anticancer activity against human SF268 cells assessed as cell growth at 100 uM after 48 hrs by sulforhodamine B assay; conditions: SF-268, 48 h, read-out: Activity
MCF7 = assay: Anticancer activity against human MCF7 cells assessed as cell growth at 100 uM after 48 hrs by sulforhodamine B assay; conditions: MCF7, 48 h, read-out: Activity

SMILES	growth at 100 µM (NCI-H460)	growth at 100 µM (SF-268)	growth at 100 µM (MCF7)
COc1ccc(Oc2nc3cc(N)cc(N)c3nc2-c2ccccc2)cc1OC	118%	131%	117%
COc1ccc(Sc2nc3cc(N)cc(N)c3nc2-c2ccccc2)cc1OC	119%	136%	121%
